# In PubChem BioAssay AID1963826 (Molecular Pharmacology Branch, DTP, NCI, 2024):
# System: 926638-142-R-J1-PDC complex spheroid viability
# Experiment: Anticancer human tumor 926638-142-R-J1-PDC patient-derived endometrial carcinoma cell line growth inhibition [POLQ]
# Settings: for IC50: curve of first compound; for viability, T/C: stronger effect = lower value
# Summary of the method: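 Complex spheroid viability model combining PDC tumour cells with endothelial (HUVEC) and MSC stromal cells. Novobiocin, ART-558 or RP6685 were tested singly and in combination with standard and investigational anticancer drugs. Each was titrated in half-log steps from near clinical Cmax, or from 10 microM where Cmax was unknown.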
# [1] = second compound 0.0316 µM, first compound 0.0316 µM
# [2] = second compound 0.0316 µM, first compound 0.1 µM
# [3] = second compound 0.0316 µM, first compound 0.316 µM
# [4] = second compound 0.0316 µM, first compound 1 µM
# [5] = second compound 0.0316 µM, first compound 3.16 µM
# [6] = second compound 0.0316 µM, first compound 10 µM
# [7] = second compound 0.1 µM, first compound 0.0316 µM
# [8] = second compound 0.1 µM, first compound 0.1 µM
# [9] = second compound 0.1 µM, first compound 0.316 µM
# [10] = second compound 0.1 µM, first compound 1 µM
# [11] = second compound 0.1 µM, first compound 3.16 µM
# [12] = second compound 0.1 µM, first compound 10 µM
# [13] = second compound 0.316 µM, first compound 0.0316 µM
# [14] = second compound 0.316 µM, first compound 0.1 µM
# [15] = second compound 0.316 µM, first compound 0.316 µM
# [16] = second compound 0.316 µM, first compound 1 µM
# [17] = second compound 0.316 µM, first compound 3.16 µM
# [18] = second compound 0.316 µM, first compound 10 µM
# [19] = second compound 1 µM, first compound 0.0316 µM
# [20] = second compound 1 µM, first compound 0.1 µM
# [21] = second compound 1 µM, first compound 0.316 µM
# [22] = second compound 1 µM, first compound 1 µM
# [23] = second compound 1 µM, first compound 3.16 µM
# [24] = second compound 1 µM, first compound 10 µM
# [25] = second compound 3.16 µM, first compound 0.0316 µM
# [26] = second compound 3.16 µM, first compound 0.1 µM
# [27] = second compound 3.16 µM, first compound 0.316 µM
# [28] = second compound 3.16 µM, first compound 1 µM
# [29] = second compound 3.16 µM, first compound 3.16 µM
# [30] = second compound 3.16 µM, first compound 10 µM
# [31] = second compound 10 µM, first compound 0.0316 µM
# [32] = second compound 10 µM, first compound 0.1 µM
# [33] = second compound 10 µM, first compound 0.316 µM
# [34] = second compound 10 µM, first compound 1 µM
# [35] = second compound 10 µM, first compound 3.16 µM
# [36] = second compound 10 µM, first compound 10 µM
# 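Further: spheroids exposed to drugs for one week before readout.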
# 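Wherever viability, T/C is given: percent viability relative to DMSO vehicle control wells set as 100%.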
structure (smiles),measurement,setting,value
CCc1cc2c(N3CCc4c(cc(Cn5ccnc5)cc4-c4cn(C)nc4C(F)(F)F)C3=O)cc(C)nc2c(OC)n1 + COC1C(OC(N)=O)C(O)C(Oc2ccc3c(O)c(NC(=O)c4ccc(O)c(CC=C(C)C)c4)c(=O)oc3c2C)OC1(C)C,IC50,second compound 0.0316 µM,0.4 µM
same,IC50,second compound 0.1 µM,0.277 µM
same,IC50,second compound 0.316 µM,0.313 µM
same,IC50,second compound 1 µM,0.214 µM
same,IC50,second compound 3.16 µM,0.244 µM
same,IC50,second compound 10 µM,0.667 µM
same,"viability, T/C",[1],79.3%
same,"viability, T/C",[2],65.2%
same,"viability, T/C",[3],49.6%
same,"viability, T/C",[4],42.6%
same,"viability, T/C",[5],33.4%
same,"viability, T/C",[6],23.4%
same,"viability, T/C",[7],72.5%
same,"viability, T/C",[8],73%
same,"viability, T/C",[9],46.9%
same,"viability, T/C",[10],27.6%
same,"viability, T/C",[11],26%
same,"viability, T/C",[12],23.8%
same,"viability, T/C",[13],68%
same,"viability, T/C",[14],52%
same,"viability, T/C",[15],52.7%
same,"viability, T/C",[16],43.6%
same,"viability, T/C",[17],31.1%
same,"viability, T/C",[18],23.5%
same,"viability, T/C",[19],88.8%
same,"viability, T/C",[20],60.7%
same,"viability, T/C",[21],46.9%
same,"viability, T/C",[22],31.2%
same,"viability, T/C",[23],28.8%
same,"viability, T/C",[24],28.9%
same,"viability, T/C",[25],60.1%
same,"viability, T/C",[26],58.4%
same,"viability, T/C",[27],47.1%
same,"viability, T/C",[28],35.8%
same,"viability, T/C",[29],27.6%
same,"viability, T/C",[30],21.6%
same,"viability, T/C",[31],66.9%
same,"viability, T/C",[32],65.8%
same,"viability, T/C",[33],62.3%
same,"viability, T/C",[34],43.1%
same,"viability, T/C",[35],29.7%
same,"viability, T/C",[36],25%
C=CC(=O)N1CCN(c2nc(=O)n(-c3c(C)ccnc3C(C)C)c3nc(-c4c(O)cccc4F)c(F)cc23)C(C)C1 (stereo not drawn) + Cc1cccc(N(C)C(=O)C2C(O)CCN2c2nc(C)cc(C(F)(F)F)c2C#N)c1,IC50,second compound 0.0316 µM,> 10 µM
same,IC50,second compound 0.1 µM,> 10 µM
same,IC50,second compound 0.316 µM,> 10 µM
same,IC50,second compound 1 µM,> 10 µM
same,IC50,second compound 3.16 µM,6.59 µM
same,IC50,second compound 10 µM,> 10 µM
same,"viability, T/C",[1],84.5%
same,"viability, T/C",[2],78%
same,"viability, T/C",[3],67.2%
same,"viability, T/C",[4],76.1%
same,"viability, T/C",[5],66%
same,"viability, T/C",[6],59.1%
same,"viability, T/C",[7],82.8%
same,"viability, T/C",[8],78.7%
same,"viability, T/C",[9],94%
same,"viability, T/C",[10],76.6%
same,"viability, T/C",[11],70.8%
same,"viability, T/C",[12],65.5%
same,"viability, T/C",[13],97.4%
same,"viability, T/C",[14],90.3%
same,"viability, T/C",[15],91.5%
same,"viability, T/C",[16],74.2%
same,"viability, T/C",[17],70%
same,"viability, T/C",[18],55.6%
same,"viability, T/C",[19],74.8%
same,"viability, T/C",[20],84.7%
same,"viability, T/C",[21],79.2%
same,"viability, T/C",[22],69.9%
same,"viability, T/C",[23],72.7%
same,"viability, T/C",[24],49.6%
same,"viability, T/C",[25],91.8%
same,"viability, T/C",[26],82.7%
same,"viability, T/C",[27],84.7%
same,"viability, T/C",[28],86%
same,"viability, T/C",[29],74.1%
same,"viability, T/C",[30],36.1%
same,"viability, T/C",[31],90.7%
same,"viability, T/C",[32],80.8%
same,"viability, T/C",[33],94.9%
same,"viability, T/C",[34],77%
same,"viability, T/C",[35],78%
same,"viability, T/C",[36],52.9%
O=C(c1cc(Cc2n[nH]c(=O)c3ccccc23)ccc1F)N1CCN(C(=O)C2CC2)CC1 + Cc1cccc(N(C)C(=O)C2C(O)CCN2c2nc(C)cc(C(F)(F)F)c2C#N)c1,IC50,second compound 0.0316 µM,> 10 µM
same,IC50,second compound 0.1 µM,> 10 µM
same,IC50,second compound 0.316 µM,> 10 µM
same,IC50,second compound 1 µM,> 10 µM
same,IC50,second compound 3.16 µM,> 10 µM
same,IC50,second compound 10 µM,> 10 µM
same,"viability, T/C",[1],102%
same,"viability, T/C",[2],93%
same,"viability, T/C",[3],92.1%
same,"viability, T/C",[4],87.2%
same,"viability, T/C",[5],74.5%
same,"viability, T/C",[6],79.1%
same,"viability, T/C",[7],114%
same,"viability, T/C",[8],87.8%
same,"viability, T/C",[9],92.4%
same,"viability, T/C",[10],88.3%
same,"viability, T/C",[11],77.6%
same,"viability, T/C",[12],79.1%
same,"viability, T/C",[13],101%
same,"viability, T/C",[14],91.6%
same,"viability, T/C",[15],82.9%
same,"viability, T/C",[16],85.9%
same,"viability, T/C",[17],85.8%
same,"viability, T/C",[18],86.5%
same,"viability, T/C",[19],86.5%
same,"viability, T/C",[20],83.5%
same,"viability, T/C",[21],91.5%
same,"viability, T/C",[22],91.8%
same,"viability, T/C",[23],67.5%
same,"viability, T/C",[24],87.2%
same,"viability, T/C",[25],76.4%
same,"viability, T/C",[26],98.2%
same,"viability, T/C",[27],101%
same,"viability, T/C",[28],79.9%
same,"viability, T/C",[29],86.3%
same,"viability, T/C",[30],69.8%
same,"viability, T/C",[31],72.3%
same,"viability, T/C",[32],80%
same,"viability, T/C",[33],78.9%
same,"viability, T/C",[34],75.7%
same,"viability, T/C",[35],69.8%
same,"viability, T/C",[36],71.1%
CCCS(=O)(=O)Nc1ccc(F)c(C(=O)c2c[nH]c3ncc(-c4ccc(Cl)cc4)cc23)c1F + Cc1cccc(N(C)C(=O)C2C(O)CCN2c2nc(C)cc(C(F)(F)F)c2C#N)c1,IC50,second compound 0.0316 µM,9.51 µM
same,IC50,second compound 0.1 µM,> 10 µM
same,IC50,second compound 0.316 µM,> 10 µM
same,IC50,second compound 1 µM,> 10 µM
same,IC50,second compound 3.16 µM,9.33 µM
same,IC50,second compound 10 µM,> 10 µM
same,"viability, T/C",[1],110%
same,"viability, T/C",[2],95.8%
same,"viability, T/C",[3],97.4%
same,"viability, T/C",[4],103%
same,"viability, T/C",[5],102%
same,"viability, T/C",[6],47.6%
same,"viability, T/C",[7],117%
same,"viability, T/C",[8],103%
same,"viability, T/C",[9],96.2%
same,"viability, T/C",[10],96.9%
same,"viability, T/C",[11],86.4%
same,"viability, T/C",[12],58.2%
same,"viability, T/C",[13],114%
same,"viability, T/C",[14],123%
same,"viability, T/C",[15],94.2%
same,"viability, T/C",[16],97%
same,"viability, T/C",[17],80.4%
same,"viability, T/C",[18],55.1%
same,"viability, T/C",[19],95.1%
same,"viability, T/C",[20],99.4%
same,"viability, T/C",[21],89%
same,"viability, T/C",[22],110%
same,"viability, T/C",[23],86%
same,"viability, T/C",[24],49.8%
same,"viability, T/C",[25],104%
same,"viability, T/C",[26],114%
same,"viability, T/C",[27],87.1%
same,"viability, T/C",[28],88.9%
same,"viability, T/C",[29],94.7%
same,"viability, T/C",[30],46.7%
same,"viability, T/C",[31],97.7%
same,"viability, T/C",[32],94.1%
same,"viability, T/C",[33],77.1%
same,"viability, T/C",[34],76.4%
same,"viability, T/C",[35],89.4%
same,"viability, T/C",[36],56%
